{"source": "paper PMC11413503", "about": "“SCR‐7952, a highly selective MAT2A inhibitor, demonstrates synergistic antitumor activities in combination with the S‐adenosylmethionine‐competitive or the methylthioadenosine‐cooperative protein arginine methyltransferase 5 inhibitors in methylthioadenosine phosphorylase‐deleted tumors” (MedComm, 2024)", "key": {"[1]": {"target": "T1, MAT2A (Homo sapiens, UniProt P31153)", "T1 construct": "purchased Pharmaron 210405‐HWR‐20210429", "T1 sequence (P31153 whole entry)": "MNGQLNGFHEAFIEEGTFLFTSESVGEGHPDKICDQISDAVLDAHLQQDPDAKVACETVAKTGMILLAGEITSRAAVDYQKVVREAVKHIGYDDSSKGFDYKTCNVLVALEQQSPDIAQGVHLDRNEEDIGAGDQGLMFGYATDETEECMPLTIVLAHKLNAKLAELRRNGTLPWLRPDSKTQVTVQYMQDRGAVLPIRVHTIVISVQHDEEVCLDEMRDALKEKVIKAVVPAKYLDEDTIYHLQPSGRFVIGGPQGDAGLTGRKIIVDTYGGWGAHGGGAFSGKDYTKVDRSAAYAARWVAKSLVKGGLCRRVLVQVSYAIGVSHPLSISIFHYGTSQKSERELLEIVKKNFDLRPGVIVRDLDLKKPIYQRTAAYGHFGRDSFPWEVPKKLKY", "set-up": "method as in earlier work", "conditions": "read-out: IC50, inhibition of MAT2A activity; cited from earlier work"}, "[2]": {"test_system": "MTAP-deleted squamous NSCLC", "set-up": "method as in NCT04794699", "conditions": "3/4 patients, up to 50% circulating tumor DNA decrease; ref NCT04794699; cited from earlier work"}, "[3]": {"test_system": "MTAP−/− cancer cells", "set-up": "method as in earlier work", "conditions": "read-out: IC50, antiproliferation on MTAP−/− cancer cells; cited from earlier work"}, "[4]": {"test_system": "HCT116 MTAP−/− xenograft", "test": "Xenograft combination treatment study", "format": "in vivo, mice", "conditions": "JNJ-64619178 1.0 mg/kg alone", "procedure": "(§1) Subcutaneous injections of HCT116 MTAP ^−/− cells were performed (5 × 10^6 cells in 100 µL) into Nu/Nu female mice. Mice were observed daily for the development of tumors. Six days after tumor implantation, mice were randomly distributed into different groups. SCR‐7952, AG‐270, JNJ‐64619178, or vehicle (water with 5% N‐methylpyrrolidone and 10% solutol HS‐15) were daily administrated by oral gavage. Tumor volumes and body weights were recorded three times per week. Tumor volumes were measured in two dimensions using a caliper, and the volume was expressed in mm^3 using the formula: V = (L × W × W)/2, where V is tumor volume, L is tumor length (the longest tumor dimension), and W is tumor width (perpendicular to L). The tumor growth inhibition rate (TGI%) of each dosing group was calculated according to the following formula: %TGI = (1 − (V t(treatment group) − V 0(treatment group))/(V t(vehicle group) − V 0(vehicle group))) × 100%, where V t is average tumor volume of a dosing group on a specific day, V 0 is average tumor volume of a dosing group on the initial day. At the end of the study, plasma and tumor tissues were collected and stored at −80°C for further measurement."}, "[5]": {"test_system": "FANCA", "test": "RT-PCR of FANCA and DI-containing transcripts", "format": "cell-based", "conditions": "72 h"}, "[6]": {"test_system": "SDMA", "test": "Immunoblot of SDMA (PRMT5-dependent mark)", "format": "cell-based", "conditions": "96 h, HCT116 MTAP−/− cells"}, "[7]": {"test_system": "SDMA", "test": "Tumor SDMA levels in combination xenograft study", "format": "in vivo, mice", "conditions": "JNJ-64619178 1.0 mg/kg alone"}, "[8]": {"test_system": "HCT116 MTAP−/− subcutaneous xenograft", "test": "Xenograft efficacy study, monotherapy", "format": "in vivo, mice", "conditions": "AG-270 200 mg/kg oral", "procedure": "An efficacy study in an HCT116 MTAP ^−/− subcutaneous xenograft mouse model was performed to evaluate the antitumor effect of SCR‐7952, with once daily (q.d.) oral dosing of 0.25, 0.5, 1.0, or 3.0 mg/kg, respectively.\nNu/Nu female mice (6–12 weeks old; Beijing Vital River Laboratory Animal Technology Co., Ltd.) were used for in vivo xenograft studies. All experimental procedures involving animals and their care were in accordance with the State Council Regulations for Laboratory Animal Management (Enacted in 1988) and approved by the Institutional Animal Care and Use Committee of Jiangsu Simcere Pharmaceutical Co., Ltd. (IACUC; Approval No. AP‐056).\nas §1"}, "[9]": {"test": "Plasma bilirubin in mice after oral treatment", "format": "in vivo", "conditions": "AG-270 200 mg/kg, 2 h after final dose"}, "[10]": {"test_system": "HCT116 MTAP−/− cells", "test": "Intracellular SAM inhibition assay", "format": "cell-based", "conditions": "Homo sapiens, HCT-116, 6 h, read-out: IC50, cellular SAM levels", "procedure": "MAT2A inhibition in the cellular environment was monitored by measurement of the abundance of its product SAM in HCT116 MTAP ^−/− cells. HCT116 MTAP ^−/− cells were plated in 96‐well cell culture plates at 50,000 cells per well and allowed to attach overnight at 37°C in 5% CO2. Compounds were added in a dose–response format to generate a 10‐point dose–response curve. Doses were started at a 10 µM top concentration with 1:5 serial dilution. After 6 h of incubation, the medium was removed and cells were extracted with 50% methanol containing 1 M acetic acid for SAM metabolite measurement by UPLC‐MS/MS.\nThe standard SAM solution was prepared in a surrogate matrix of 50% methanol containing 1 M acetic acid with a concentration range of 3–1000 ng/mL. The quality control sample was prepared in the same surrogate matrix. SAM‐d 3 was used as the internal standard (IS). A Waters UPLC system coupled with a SCIEX Triple Quad™ 6500^+ mass spectrometer […] was used to analyze the samples. Samples were separated on an ACQUITY UPLC® BEH amide column (2.1 × 50 mm, 1.7 µm). The mobile phase consisted of 5% acetonitrile containing 5 mM NH4OAc and 1% (v/v) formic acid (A) and 95% acetonitrile containing 5 mM NH4OAc and 1% (v/v) formic acid (B). […] SAM and SAM‐d 3 were detected with multiple‐reaction monitoring of a mass transition pair at m/z 399.2/250.2 and […], respectively."}, "[11]": {"test_system": "UGT1A1", "set-up": "method as in PMID 16765731", "conditions": "off-target activity of AG-270; cited from earlier work"}, "[12]": {"test": "Plasma pharmacokinetics after multiple administration in xenograft mice", "format": "in vivo", "conditions": "AG-270 200 mg/kg"}, "[13]": {"test_system": "WI-38 (human fetal lung fibroblast cells)", "test": "Proliferation assay (CellTiter-Glo)", "format": "cell-based", "conditions": "Homo sapiens, WI-38, MTAP WT; read-out: IC50, anti-proliferation WI-38", "procedure": "(§2) HCT116 colon carcinoma parental (WT) cells with MTAP ^−/− isogenic clone were established by KYinno Biotechnology Co., Ltd. (Beijing, China). A549, MIA PaCa‐2, and WI‐38 cell lines were obtained from ATCC. NCI‐H838 was obtained from Cobioer Biosciences. HCT116 WT and KO MTAP cells were cultured in McCoy's 5A media containing 10% FBS. A549 cells were cultured in DMEM media containing 10% FBS. MIA PaCa‐2 cells were cultured in DMEM media containing 10% FBS and 2.5% horse serum. NCI‐H838 cells were cultured in PRMI 1640 media containing 10% FBS. WI‐38 cells were cultured in EMEM media containing 10% FBS.\n(§3) Cells were plated in 96‐well cell culture plates and allowed to attach overnight at 37°C in 5% CO2. Compounds diluted in DMSO were added to cells in a dose–response format for 6 days. The final concentration of DMSO was 0.1% in media. Cell proliferation was measured using CellTiter‐Glo Cell Viability Assay (Promega). The IC50 values were calculated using the GraphPad Prism 9. Drug combination effects were analyzed using Combenefit software.[45]"}, "[14]": {"test_system": "MIA PaCa-2", "test": "Proliferation assay (CellTiter-Glo)", "format": "cell-based", "conditions": "Homo sapiens, MIA PaCa-2, 144 h; MTAP-deleted, 6-day; read-out: IC50, anti-proliferation MIA PaCa-2", "procedure": "as §2, §3"}, "[15]": {"test_system": "HCT116 MTAP−/− cells", "test": "Proliferation assay (CellTiter-Glo)", "format": "cell-based", "conditions": "Homo sapiens, HCT-116, 144 h; 6-day treatment; read-out: IC50, anti-proliferation HCT116 MTAP−/−", "procedure": "as §2, §3"}, "[16]": {"test_system": "HCT116 WT cells", "test": "Proliferation assay (CellTiter-Glo)", "format": "cell-based", "conditions": "Homo sapiens, HCT-116, 144 h; 6-day treatment; read-out: IC50, anti-proliferation HCT116 WT", "procedure": "as §2, §3"}, "[17]": {"test_system": "NCI-H838", "test": "Proliferation assay (CellTiter-Glo)", "format": "cell-based", "conditions": "Homo sapiens, NCI-H838, 144 h; MTAP-deleted, 6-day; read-out: IC50, anti-proliferation NCI-H838", "procedure": "as §2, §3"}, "[18]": {"test_system": "A549", "test": "Proliferation assay (CellTiter-Glo)", "format": "cell-based", "conditions": "Homo sapiens, A549, 144 h; MTAP-deleted, 6-day; read-out: IC50, anti-proliferation A549", "procedure": "as §2, §3"}, "[19]": {"test_system": "mixed-lineage leukemia-rearranged (MLLr) leukemia", "set-up": "method as in PMID 32456310", "conditions": "read-out: IC50, antiproliferation in MLLr leukemia; cited from earlier work"}, "[20]": {"test_system": "Huh-7 cells", "set-up": "method as in PMID 28553945", "conditions": "read-out: IC50, antiproliferative effect on Huh-7 cells; cited from earlier work"}, "[21]": {"target": "T1, MAT2A", "set-up": "method as in PMID 28553945", "conditions": "chemical assay; cited from earlier work"}}, "note": "Where “and” joins values, the source holds several entries; their conditions need not be identical. Equal values may be shown once. Read-outs that look alike come from different tables or passages of the source."}
{"smiles": "Nc1nc(=O)n(-c2ccccc2Cl)c2nc(C(F)(F)F)ccc12", "note": "[IDE397]", "values": [{"measurement": "IC50", "setting": "[1]", "value": "~10", "unit": "nM"}, {"measurement": "molecular responses", "setting": "[2]", "value": 75, "unit": "%"}, {"measurement": "IC50", "setting": "[3]", "value": "~20", "unit": "nM"}]}
{"smiles": "Nc1nc2cc(CC[C@H]3C[C@@H](n4ccc5c(N)ncnc54)[C@H](O)[C@@H]3O)ccc2cc1Br", "note": "[JNJ‐64619178, reference compound]", "values": [{"measurement": "TGI", "setting": "[4]", "value": 54.0, "unit": "%"}, {"measurement": "expression of FANCA DI-containing transcripts", "setting": "[5]", "value": "increase of FANCA DI‐containing transcripts"}, {"measurement": "SDMA level (immunoblot)", "setting": "[6]", "value": "reduction of SDMA"}, {"measurement": "tumor SDMA levels", "setting": "[7]", "value": "remarkable reduction"}]}
{"smiles": "COc1ccc(-c2c(Nc3ccccn3)[nH]c3c(C4=CCCCC4)c(-c4ccccc4)nn3c2=O)cc1", "note": "[AG‐270, reference compound]", "values": [{"measurement": "TGI", "setting": "[8]", "value": 52.0, "unit": "%"}, {"measurement": "effect on plasma total, direct and unconjugated bilirubin", "setting": "[9]", "value": "remarkably increased"}, {"measurement": "IC50", "setting": "[10]", "value": 5.8, "unit": "nM"}, {"measurement": "IC50", "setting": "[11]", "value": 1100, "unit": "nM"}, {"measurement": "AUC0-24h free drug", "setting": "[12]; calculated", "value": 3.829, "unit": "µg·h/mL"}, {"measurement": "AUC(0-t)", "setting": "[12]; Nu/Nu, mouse, oral, plasma, HCT116 MTAP−/− xenograft mice, read-out: AUC0-24h total", "value": 383, "unit": "µg·h/mL"}, {"measurement": "IC50", "setting": "[13]", "value": 1410, "unit": "nM"}, {"measurement": "IC50", "setting": "[14]", "value": 935, "unit": "nM"}, {"measurement": "IC50", "setting": "[15]", "value": 300, "unit": "nM"}, {"measurement": "IC50", "setting": "[16]", "value": 1220, "unit": "nM"}, {"measurement": "IC50", "setting": "[17]", "value": 93.9, "unit": "nM"}, {"measurement": "IC50", "setting": "[18]", "value": 646, "unit": "nM"}]}
{"smiles": "CN(C)CCc1nnc2cc(-c3ccccc3)c3cc(Cl)ccc3n12", "note": "[PF‐9366]", "values": [{"measurement": "IC50", "setting": "[19]", "value": "~10000", "unit": "nM"}, {"measurement": "IC50", "setting": "[20]", "value": "~10000 nM and 10000 nM"}, {"measurement": "IC50", "setting": "[21]", "value": 420, "unit": "nM"}]}
